Results reported in US12329738B2, “Urolithin A and a composition containing same for external use in inflammations of various etiologies” (WARSZAWSKI UNIWERSYTET MEDYCZNY, priority 2018, dated 2025).

What was measured:
[1] = tested on: NHDF fibroblasts (human normal skin fibroblasts); conditions: comparative studies by the inventors
Experimental: NHDF fibroblasts (human normal skin fibroblasts) were cultured in the DMEM medium supplemented with 10% FBS and a mixture of antibiotics—penicillin and streptomycin at 37° C., 5% CO2. […] After incubation with the compounds, the cells were washed twice with warm medium. The effect on cell viability was assessed using a standard MTT test.

TNF-alpha [2] = assay: TNF-alpha production by THP-1 derived macrophages (ELISA); type: cell-based, human; conditions: 40 μM; LPS stimulation; FIG. 13
Experimental: (§1) Monocytes of the THP-1 line were cultured in RPMI 1640 medium supplemented with 10% FBS and 2 mM glutamine. For transformation of monocytes into macrophages, the cells were treated with 12.5 ng/mL PMA (phorbol 12-myristate 13-acetate) for 48 hours, then washed and incubated for 24 hours in a culture medium without PMA. After this time, urolithin A, urolithin B, iso-urolithin A and the corresponding glucuronides (GUA, GUB and GiUA) were added to the cells at a concentration of 40 μM. After 1 hour of incubation with the compounds, the cells were stimulated with LPS from Escherichia coli (10 ng/mL).
(§2) To assess the level of TNF-alpha production, the cells were incubated for 6 hours, to assess the expression of mRNA for TNF-alpha, the cells were incubated for 24 hours, to assess the effect on ERK1/2 phosphorylation, the cells were incubated for 35 minutes.
(§3) The level of TNF-alpha in the culture medium was determined using the immunochemical ELISA method (BD biosciences). Evaluation of the expression of mRNA for TNF-alpha was performed using real time PCR. After 24 hours of incubation, RNA was isolated using NucleoSpin RNA Clean-up (Macherey-Nagel). The amount and quality of isolated RNA was determined using 2100 Bioanalyzer (Agilent Technologies). The expression level of mRNA for TNF-α was determined using Brilliant II SYBR Green QPCR Kit and Aria Mx Real-Time PCR thermocycler (Agilent Technologies). The following were used as primers for TNF-alpha: forward: 5′-[…]-3′, reverse: 5′-[…]-3′. Beta-actin (ACTB) was used as the housekeeping gene; primer forward: 5′-[…]-3′, reverse: 5′-[…]-3′).
(§4) The obtained results of experiments on in vitro models were analyzed using the Statistica 13 program (StatSoft, Inc., Tulsa, OK, USA) and presented as mean values±SEM. Statistical significance was set at P≤0.05. The results with established normal distribution in the D'Agostin and Pearson test were prepared using analysis of variance (ANOVA). Parametric post-hoc analysis was performed using Dunnett's test.

mRNA for TNF-alpha = assay: TNF-alpha mRNA expression in THP-1 derived macrophages (real time PCR); type: cell-based, human; conditions: 40 μM; LPS stimulation; FIG. 14
Experimental: as §1, §2, §3, §4

ERK1/2 = ERK1/2 phosphorylation in THP-1 derived macrophages (Western blotting); type: cell-based, human; conditions: 40 μM; LPS 10 ng/mL, 35 min; FIG. 15
Experimental: Monocytes of the THP-1 line were cultured in RPMI 1640 medium supplemented with 10% FBS and 2 mM glutamine. For transformation of monocytes into macrophages, the cells were treated with 12.5 ng/mL PMA (phorbol 12-myristate 13-acetate) for 48 hours, then washed and incubated for 24 hours in a culture medium without PMA. After this time, urolithin A, urolithin B, iso-urolithin A and the corresponding glucuronides (GUA, GUB and GiUA) were added to the cells at a concentration of 40 μM. After 1 hour of incubation with the compounds, the cells were stimulated with LPS from Escherichia coli (10 ng/mL). To assess the level of TNF-alpha production, the cells were incubated for 6 hours, to assess the expression of mRNA for TNF-alpha, the cells were incubated for 24 hours, to assess the effect on ERK1/2 phosphorylation, the cells were incubated for 35 minutes. […] The obtained results of experiments on in vitro models were analyzed using the Statistica 13 program (StatSoft, Inc., Tulsa, OK, USA) and presented as mean values±SEM. Statistical significance was set at P≤0.05. The results with established normal distribution in the D'Agostin and Pearson test were prepared using analysis of variance (ANOVA). Parametric post-hoc analysis was performed using Dunnett's test.

TNF-alpha [3] = assay: TNF-alpha production by macrophages from human peripheral blood monocytes (ELISA); type: cell-based; conditions: 40 μM; LPS 100 ng/mL, 24 h; FIG. 16
Experimental: Monocytes were isolated from peripheral human blood by a standard method using dextran sedimentation and Ficoll Hypaque gradient centrifugation. After isolation, monocytes were suspended in RPMI 1640 medium supplemented with L-glutamine, HEPES, streptomycin, amphotericin and gentamicin, and 20% autologous serum. Cell culture was carried out under these conditions for 7 days. […] After 24h, TNF-alpha level in the medium was determined using the immunochemical ELISA method (BD biosciences). The obtained results of experiments on in vitro models were analyzed using the Statistica 13 program (StatSoft, Inc., Tulsa, OK, USA) and presented as mean values±SEM. Statistical significance was set at P≤0.05. The results with established normal distribution in the D'Agostin and Pearson test were prepared using analysis of variance (ANOVA). Parametric post-hoc analysis was performed using Dunnett's test.

tyrosinase = molecular target: T1, tyrosinase (Mus musculus, UniProt P11344); conditions: B16 melanoma cells; cited from earlier work
T1 sequence (P11344 19-533): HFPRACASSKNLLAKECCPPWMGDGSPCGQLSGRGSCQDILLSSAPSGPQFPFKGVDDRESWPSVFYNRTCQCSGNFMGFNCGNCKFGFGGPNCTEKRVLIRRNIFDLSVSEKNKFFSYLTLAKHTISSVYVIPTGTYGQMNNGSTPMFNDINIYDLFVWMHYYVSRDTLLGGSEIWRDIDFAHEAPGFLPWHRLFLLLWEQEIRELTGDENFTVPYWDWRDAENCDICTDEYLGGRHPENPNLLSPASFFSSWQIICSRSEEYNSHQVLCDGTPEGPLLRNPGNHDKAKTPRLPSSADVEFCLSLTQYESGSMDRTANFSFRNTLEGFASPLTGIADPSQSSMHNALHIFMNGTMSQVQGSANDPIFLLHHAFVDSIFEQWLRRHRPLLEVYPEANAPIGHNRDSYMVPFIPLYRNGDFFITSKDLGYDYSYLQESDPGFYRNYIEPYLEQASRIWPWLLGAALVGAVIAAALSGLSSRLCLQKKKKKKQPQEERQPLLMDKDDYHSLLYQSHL

| SMILES | Antiproliferative activity on human skin fibroblast cells [1] | TNF-alpha production by THP-1 derived macrophages (TNF-alpha [2]) | TNF-alpha mRNA expression in THP-1 derived macrophages (mRNA for TNF-alpha) | ERK1/2 kinase phosphorylation in THP-1 derived macrophages (ERK1/2) | Inhibition of TNF-alpha production by macrophages from human peripheral blood monocytes (TNF-alpha [3]) | Tyrosinase activity (depigmentation) (tyrosinase) |
| --- | --- | --- | --- | --- | --- | --- |
| CC(=O)Oc1ccc2c(c1)c(=O)oc1cc(O)ccc12 [8-acetyl-urolithin A] | neither urolithin A, nor 8-acetyl-urolithin A, nor 3-acetyl-urolithin A showed antiproliferative activity | – | – | – | – | – |
| CC(=O)Oc1ccc2c(c1)oc(=O)c1cc(O)ccc12 [3-acetyl-urolithin A] | neither urolithin A, nor 8-acetyl-urolithin A, nor 3-acetyl-urolithin A showed antiproliferative activity | – | – | – | – | – |
| O=c1oc2cc(O)ccc2c2ccccc12 [urolithin B] | – | did not show any activity | inactive | did not exhibit such activity | inactive | suppressing tyrosinase activity |
